Measurements taken from ChEMBL document CHEMBL1201862, “PubChem BioAssay data set” (2004).
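In this assay, cells in 96-well plates receive the compound at five concentrations for 48 hours. Endpoints are linearly interpolated between the surrounding concentrations. GI50 marks 50% less growth.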 Activity calls are given as the source filed them. No stated cut-off is given here; in the data, active = GI50 up to about 1.1 µM and inactive = higher.

Columns and labels:
Test in all cases: NCI anticancer screen, dose series, 48 h
TK-10 = system: TK-10
UACC-257 = system: UACC-257
LOX IMVI = system: LOX IMVI
786-0 = system: 786-0
RPMI-8226 = system: RPMI-8226
SK-MEL-5 = system: SK-MEL-5
UACC-62 = system: UACC-62
SF-268 = system: SF-268
T47D = system: T47D
MCF7 = system: MCF7
SF-295 = system: SF-295
SK-MEL-28 = system: SK-MEL-28
Malme-3M = system: Malme-3M
EKVX = system: EKVX
HOP-62 = system: HOP-62
KM12 = system: KM12
SNB-19 = system: SNB-19
A549 = system: A549
NCI-H522 = system: NCI-H522
CCRF-CEM = system: CCRF-CEM

Structure (SMILES)	GI50 (TK-10)	GI50 (UACC-257)	GI50 (LOX IMVI)	GI50 (786-0)	GI50 (RPMI-8226)	GI50 (SK-MEL-5)	GI50 (UACC-62)	GI50 (SF-268)	GI50 (T47D)	GI50 (MCF7)	GI50 (SF-295)	GI50 (SK-MEL-28)	GI50 (Malme-3M)	GI50 (EKVX)	GI50 (HOP-62)	GI50 (KM12)	GI50 (SNB-19)	GI50 (A549)	GI50 (NCI-H522)	GI50 (CCRF-CEM)
CCOC(=O)c1c2ccccc2n2c(=O)n(-c3ccc(OC)cc3)nnc12	46.6 µM (inactive)	60.5 µM (inactive)	17.3 µM (inactive)	17 µM (inactive)	25.1 µM (inactive)	58.5 µM (inactive)	11.2 µM (inactive)	16.2 µM (inactive)	24.3 µM (inactive)	0.555 µM (active)	20.3 µM (inactive)	65.6 µM (inactive)	30.5 µM (inactive)	32.1 µM (inactive)	21.1 µM (inactive)	88.1 µM (inactive)	34.2 µM (inactive)	46.5 µM (inactive)	–	–
COc1ccc2c(c1)C(=O)OCCC2	> 100 µM (inactive)	> 100 µM (inactive)	–	> 100 µM (inactive)	> 100 µM (inactive)	> 100 µM (inactive)	> 100 µM (inactive)	> 100 µM (inactive)	> 100 µM (inactive)	> 100 µM (inactive)	> 100 µM (inactive)	> 100 µM (inactive)	–	> 100 µM (inactive)	> 100 µM (inactive)	> 100 µM (inactive)	> 100 µM (inactive)	> 100 µM (inactive)	> 100 µM (inactive)	> 100 µM (inactive)
COC(=O)C1=C(C)N2[C@H](C(=O)O)CS[C@@]2(C)[C@H](C(=O)OC)[C@H]1c1cccc([N+](=O)[O-])c1	> 100 µM (inactive)	> 100 µM (inactive)	–	> 100 µM (inactive)	> 100 µM (inactive)	> 100 µM (inactive)	> 100 µM (inactive)	> 100 µM (inactive)	> 100 µM (inactive)	> 100 µM (inactive)	> 100 µM (inactive)	> 100 µM (inactive)	> 100 µM (inactive)	> 100 µM (inactive)	> 100 µM (inactive)	> 100 µM (inactive)	> 100 µM (inactive)	> 100 µM (inactive)	> 100 µM (inactive)	> 100 µM (inactive)
OC(c1ccc(F)cc1)C(F)(F)c1nc2ccccc2o1 (stereo not given)	> 100 µM (inactive)	57.4 µM (inactive)	> 100 µM (inactive)	> 100 µM (inactive)	90.6 µM (inactive)	50 µM (inactive)	> 100 µM (inactive)	38.9 µM (inactive)	76 µM (inactive)	> 100 µM (inactive)	> 100 µM (inactive)	> 100 µM (inactive)	–	> 100 µM (inactive)	62.5 µM (inactive)	44.3 µM (inactive)	> 100 µM (inactive)	–	–	> 100 µM (inactive)
COC(=O)[C@@H]1CCc2nc3ccccc3c(=O)n21	> 100 µM (inactive)	> 100 µM (inactive)	> 100 µM (inactive)	> 100 µM (inactive)	> 100 µM (inactive)	> 100 µM (inactive)	> 100 µM (inactive)	> 100 µM (inactive)	> 100 µM (inactive)	–	> 100 µM (inactive)	> 100 µM (inactive)	–	> 100 µM (inactive)	> 100 µM (inactive)	> 100 µM (inactive)	–	> 100 µM (inactive)	> 100 µM (inactive)	> 100 µM (inactive)
O=C(/C=C/c1ccc(C(F)(F)F)cc1)c1c([O-])on[n+]1-c1ccccc1	1.65 µM (inactive)	2.12 µM (inactive)	0.403 µM (active)	0.531 µM (active)	0.261 µM (active)	2.8 µM (inactive)	1.47 µM (inactive)	–	1.8 µM (inactive)	1.15 µM (inactive)	3.6 µM (inactive)	1.61 µM (inactive)	> 100 µM (inactive)	2.24 µM (inactive)	3.95 µM (inactive)	1.83 µM (inactive)	3.12 µM (inactive)	4.03 µM (inactive)	–	0.108 µM (active)
CCOC(=O)c1c(SC)nc(-c2ccc(Cl)cc2)sc1=N.[O-][Cl+3]([O-])([O-])O	44.3 µM (inactive)	34.6 µM (inactive)	36.4 µM (inactive)	27.3 µM (inactive)	37.2 µM (inactive)	15.2 µM (inactive)	30.8 µM (inactive)	29.4 µM (inactive)	31.9 µM (inactive)	29 µM (inactive)	28.2 µM (inactive)	61.9 µM (inactive)	20.5 µM (inactive)	22 µM (inactive)	30.1 µM (inactive)	30.8 µM (inactive)	94.4 µM (inactive)	37.7 µM (inactive)	–	39.9 µM (inactive)
CN(C)CCNc1ccc([N+](=O)[O-])c2sc3ccccc3c(=O)c12	12.3 µM (inactive)	6.28 µM (inactive)	–	3.38 µM (inactive)	2.64 µM (inactive)	8.63 µM (inactive)	4.61 µM (inactive)	4.21 µM (inactive)	13.7 µM (inactive)	3.41 µM (inactive)	4.24 µM (inactive)	7.08 µM (inactive)	4.27 µM (inactive)	4.5 µM (inactive)	2.81 µM (inactive)	5.19 µM (inactive)	5.14 µM (inactive)	3.83 µM (inactive)	1.56 µM (inactive)	2.26 µM (inactive)
